≈ marks a conversion by molar mass, not a printed value.
How the values were obtained:
[1] = system: Staphylococcus aureus; assay: Antibacterial activity against Staphylococcus aureus ATCC 25923 by two-fold dilution method; format: functional
[2] = system: A549; assay: Cytotoxicity against human A549 cells by MTT assay; format: functional, cell-based
[3] = system: MCF7; assay: Cytotoxicity against human MCF7 cells by MTT assay; format: functional, cell-based
[4] = system: Staphylococcus aureus; assay: Antibacterial activity against methicillin-resistant Staphylococcus aureus clinical isolate 98 by two-fold dilution method; format: functional
[5] = system: SMMC-7721; assay: Cytotoxicity against human SMMC7721 cells by MTT assay; format: functional, cell-based
[6] = system: HL-60; assay: Cytotoxicity against human HL60 cells by MTT assay; format: functional, cell-based
[7] = system: Pseudomonas aeruginosa; assay: Antibacterial activity against Pseudomonas aeruginosa ATCC 27853 by two-fold dilution method; format: functional
[8] = system: Staphylococcus aureus; assay: Antibacterial activity against methicillin-resistant Staphylococcus aureus clinical isolate 92 by two-fold dilution method; format: functional
[9] = system: SW480; assay: Cytotoxicity against human SW480 cells by MTT assay; format: functional, cell-based

SMILES	MIC [1] [µg/mL]	IC50 [2] [µM]	IC50 [3] [µM]	MIC [4] [µg/mL]	IC50 [5] [µM]	IC50 [6] [µM]	MIC [7] [µg/mL]	MIC [8] [µg/mL]	IC50 [9] [µM]
Cc1cc2ccc3c(c2cc1O)C=C(O)C(=O)C3(C)C [TRIGOHOWILOL B]	25 (≈ 93.2 µM)	> 40	> 40	50 (≈ 186 µM)	> 40	> 40	25 (≈ 93.2 µM)	50 (≈ 186 µM)	> 40
COc1cc2c(cc1C)C(=O)C=C1C2=C(C2=Cc3c(cc(O)c4cc(C)c(OC)cc34)C(C)(C)C2=O)C(=O)C1(C)C [TRIGOHOWILOL F]	12.5 (≈ 22.8 µM)	3.64	4.2	12.5 (≈ 22.8 µM)	2.33	2.49	25 (≈ 45.6 µM)	12.5 (≈ 22.8 µM)	3.56
COc1cc2c3c(cc(O)c2cc1C)C(C)(C)C(=O)C=C3 [TRIGOHOWILOL A]	25 (≈ 88.5 µM)	35.6	> 40	25 (≈ 88.5 µM)	> 40	24.8	25 (≈ 88.5 µM)	25 (≈ 88.5 µM)	> 40
CN[C@H](CC(C)C)C(=O)N[C@H]1C(=O)N[C@@H](CC(N)=O)C(=O)N[C@H]2C(=O)N[C@H]3C(=O)N[C@H](C(=O)N[C@H](C(=O)O)c4cc(O)cc(O)c4-c4cc3ccc4O)[C@H](O)c3ccc(c(Cl)c3)Oc3cc2cc(c3O[C@@H]2O[C@H](CO)[C@@H](O)[C@H](O)[C@H]2O[C@H]2C[C@](C)(N)[C@H](O)[C@H](C)O2)Oc2ccc(cc2Cl)[C@H]1O.Cl [VANCOMYCIN HYDROCHLORIDE]	0.78			0.78			0.78	0.78	
COc1cc2c(cc1C)C(=O)C=C1C2=C(C2=Cc3c(cc(O)c4cc(C)c(O)cc34)C(C)(C)C2=O)C(=O)C1(C)C [TRIGOHOWILOL E]	6.25 (≈ 11.7 µM)	9.69	12.6	12.5 (≈ 23.4 µM)	3.25	2.61	50 (≈ 93.5 µM)	25 (≈ 46.8 µM)	9.42
COc1cc2c3c(cc(O)c2cc1C)C(C)(C)C(=O)C(C1=C2C(=CC(=O)c4cc(C)c(O)cc42)C(C)(C)C1=O)=C3 [TRIGOHOWILOL D]	12.5 (≈ 23.4 µM)	> 40	> 40	12.5 (≈ 23.4 µM)	> 40	24.3	25 (≈ 46.8 µM)	12.5 (≈ 23.4 µM)	> 40
Cc1cc2c(cc1O)C1=C(C3=Cc4c(cc(O)c5cc(C)c(O)cc45)C(C)(C)C3=O)C(=O)C(C)(C)C1=CC2=O [TRIGOHOWILOL C]	25 (≈ 48 µM)	> 40	> 40	25 (≈ 48 µM)	> 40	> 40	25 (≈ 48 µM)	25 (≈ 48 µM)	> 40
COc1cc2c(cc1C)C(=O)C=C1C2=C(C2=C3C(=CC(=O)c4cc(C)c(OC)cc43)C(C)(C)C2=O)C(=O)C1(C)C [TRIGOHOWILOL G]	> 50	5.35	15.5	> 50	2.78	17.8	> 50	> 50	8.39
